How the values were obtained:
Type in all cases: cell-based
C2C12 mouse myoblasts [1] = assay: Scratch migration (chemotaxis) assay on C2C12 cells; conditions: for migration of cells across the scratch: 24 hours at 37° C., 10 ng/ml PDGF, 1 μg/ml peptides, mean (±SD); for increase in migration compared to the negative control (Mean Diff) / increase in migration compared to the no treatment control (Mean Diff.): 24 hours; for increase in migration compared to the negative control (Mean Diff): vs AG1296+PDGF−AB negative control; for increase in migration compared to the no treatment control (Mean Diff.): vs no treatment control
Procedure: FIG. 2. Migration of C2C12 Mouse […] Cells Treated with PDGF and peptides JC5 and JC5a. C2C12 mouse fibroblast cells migrate across the scratch over 24 hours. Cells were treated with 10 ng/ml PDGF−AB (n=6), PDGF−BB (n=6), and 1 μg/ml of novel PDGF mimetic JC5 (n=6) and JC5a (n=3). […] There was also no statistically significant difference between the PDGF mimetic peptides and PDGF−AB and −BB positive controls. Error bars represent ±SD. The function of Compounds Ia (also referred to herein as JC5) and Ib (also referred to herein as JC5a) has been tested in vitro on the continuous cell line, C2C12 mouse myoblasts. In these in vitro assays recombinant PDGF−AB and −BB have been used as positive controls along with a serum starved no treatment control and the PDGF receptor inhibitor AG1296 co-treated with PDGF−AB as a negative control. The in vitro assays were designed to assess the major known functions of PDGF whilst also considering functions that are relevant to its in vivo applications. These functions were chemotaxis, collagen contraction, vascular tube formation and activation of the PDGF receptors via phosphorylation of Akt and Erk. Chemotaxis was assessed by making a scratch through a 2D culture of C2C12 cells following treatment with the four controls and the peptides JC5 and JC5a. They were then incubated for 24 hours at 37° C. Migration of the cells across the scratch at the conclusion of the incubation was measured and compared to the relevant controls described above. PDGF is a well-established mediator of chemotaxis and is expected to increase migration of the cells across the scratch over the course of 24 hours post treatment.

C2C12 mouse myoblasts [2] = assay: Collagen gel contraction assay with C2C12 cells; conditions: for collagen gel contracted to % of its initial surface area: 24-hour incubation, 10 ng/ml PDGF, 1 μg/ml peptides, 10 μM AG1296, mean (±SD); for difference in collagen gel area versus negative control AG1296 co-treated with PDGF−AB (Mean Diff.) / difference in collagen gel area versus no treatment control (Mean Diff.): 24 hours; for difference in collagen gel area versus negative control AG1296 co-treated with PDGF−AB (Mean Diff.): vs negative control (55.25%); for difference in collagen gel area versus no treatment control (Mean Diff.): vs no treatment control (41.27%)
From the text: FIG. 3. Collagen Contraction of C2C12 Mouse Fibroblasts Treated with PDGF and peptides JC5 and JC5a. […] Error bars represent ±SD, n=8/4. The function of Compounds Ia (also referred to herein as JC5) and Ib (also referred to herein as JC5a) has been tested in vitro on the continuous cell line, C2C12 mouse myoblasts. In these in vitro assays recombinant PDGF−AB and −BB have been used as positive controls along with a serum starved no treatment control and the PDGF receptor inhibitor AG1296 co-treated with PDGF−AB as a negative control. The in vitro assays were designed to assess the major known functions of PDGF whilst also considering functions that are relevant to its in vivo applications. These functions were chemotaxis, collagen contraction, vascular tube formation and activation of the PDGF receptors via phosphorylation of Akt and Erk. Collagen contraction is an important function during wound healing of many tissues including the heart. This can be simulated in vitro using a collagen gel contraction assay. This was assessed using C2C12 cells treated with the positive controls 10 ng/ml recombinant PDGF-BB and PDGF−AB, negative control 10 μM AG1296 co-treated with 10 ng/ml recombinant PDGF−AB, a serum starved no treatment control and 1 μg/ml of the peptides JC5 and JC5a. C2C12 mouse myoblasts were seeded in a 3D collagen gel crosslinked with NaOH and incubated at 37° C. for 24 hours following treatment with the four controls and peptides JC5 and JC5a.

[3] = system: primary human coronary artery endothelial cells (HCAECs); assay: Vascular tube forming assay on Geltrex; conditions: 24 hours; for tube length: 50 ng/ml PDGF, 5 μg/ml JC5, 10 μM AG1296, mean (±SD); for increased tube length compared to the negative control (Mean Diff.): vs AG1296+PDGF−AB (307.7 μm); for increased tube length compared to the no treatment control (Mean Diff.): vs no treatment control (305 μm)
Procedure: FIG. 4. Tube formation of Human Coronary Artery Endothelial Cells Treated with PDGF and PDGF Mimetic Peptide JC5. Human coronary artery endothelial cells treated with 50 ng/ml of PDGF−AB and PDGF−BB produced longer tubes than untreated cells and cells treated with the PDGF receptor inhibitor AG1296+PDGF−AB. […] Error bars represent ±SD, n=3/group.
PDGF has a well-established role in angiogenesis in vivo. To simulate this function in vitro a vascular tube forming assay on primary human coronary artery endothelial cells (HCAECs) was carried out. Cells were seeded on top of 3D growth factor reduced Geltrex basement membrane extract and incubated for 24 hours following treatment with the PDGF−AB, PDGF-BB, no treatment control, AG1296+PDGF−AB negative control, and peptides JC5 and JC5a. Over the course of 24 hours the cells form tubes throughout the gel. PDGF is reported to facilitate tube formation of endothelial cells in in vitro 3D assays.
Cells treated with 50 ng/ml of PDGF−AB, PDGF-BB, and 5 μg/ml of JC5 produced longer more uniform tubes than untreated cells and cells treated with the negative control 10 μM PDGF receptor inhibitor AG1296 co-treated with 50 ng/ml PDGF−AB (FIG. 4). The positive controls PDGF−AB and PDGF−BB produced tubes that were 560.7 μm (±53.93) and 616.3 μm (±39.07), respectively. […] The no treatment control and AG1296+PDGF−AB negative control produced tubes that were 305 μm and 307.7 μm, respectively. […] In summary, JC5 has similar vascular tube forming ability to recombinant human PDGF−AB and PDGF-BB.

Compound | migration of cells across the scratch (C2C12 mouse myoblasts [1]) [%] | increase in migration compared to the negative control (Mean Diff) (C2C12 mouse myoblasts [1]) [%] | increase in migration compared to the no treatment control (Mean Diff.) (C2C12 mouse myoblasts [1]) [%] | collagen gel contracted to % of its initial surface area (C2C12 mouse myoblasts [2]) [%] | difference in collagen gel area versus negative control AG1296 co-treated with PDGF−AB (Mean Diff.) (C2C12 mouse myoblasts [2]) [%] | difference in collagen gel area versus no treatment control (Mean Diff.) (C2C12 mouse myoblasts [2]) [%] | tube length [3] [μm] | increased tube length compared to the negative control (Mean Diff.) [3] [μm] | increased tube length compared to the no treatment control (Mean Diff.) [3] [μm]
CCCCCCCCCCCCCCCC(=O)NCCCC[C@H](NC(=O)[C@H](CCC(=O)O)NC(=O)[C@H](Cc1ccc(O)cc1)NC(=O)[C@@H](CCC(=O)O)NC(=O)CCOCCOCCOCCNC(=O)CCOCCOCCOCCNC(=O)[C@@H](CCCCN)NC(=O)[C@@H](CCCCN)NC(=O)[C@@H](CCCNC(=N)N)NC(=O)[C@@H](NC(=O)[C@@H](NC(=O)[C@H](CCC(=O)O)NC(=O)[C@@H](NC(=O)[C@H](CCCCN)NC(=O)[C@@H](CCCNC(=N)N)NC(=O)[C@H](NC(=O)[C@H](N)CSSC[C@@H](N)C(=O)N[C@@H](C(=O)N[C@H](CCCNC(=N)N)C(=O)N[C@@H](CCCCN)C(=O)N[C@H](C(=O)N[C@@H](CCC(=O)O)C(=O)N[C@H](C(=O)N[C@H](C(=O)N[C@H](CCCNC(=N)N)C(=O)N[C@H](CCCCN)C(=O)N[C@H](CCCCN)C(=O)NCCOCCOCCOCCC(=O)NCCOCCOCCOCCC(=O)N[C@H](CCC(=O)O)C(=O)N[C@@H](Cc1ccc(O)cc1)C(=O)N[C@@H](CCC(=O)O)C(=O)N[C@@H](CCCCNC(=O)CCCCCCCCCCCCCCC)C(=O)N[C@@H](CCC(=O)O)C(=O)N[C@@H](Cc1ccc(O)cc1)C(=O)N[C@@H](CCC(=O)O)C(N)=O)C(C)C)[C@H](C)CC)[C@@H](C)CC)C(C)C)C(C)C)[C@@H](C)CC)[C@H](C)CC)C(C)C)C(=O)N[C@@H](CCC(=O)O)C(=O)N[C@@H](Cc1ccc(O)cc1)C(=O)N[C@@H](CCC(=O)O)C(N)=O [JC5a, PDGF Loop III dimer USA dimer (CVRKIEIVRKK)2(Peg3)2(EYEK(Palm)EYE)2-C′] | 79.88 | 62.71 | 59.56 | 33.28 | 21.96 |  |  |  | 
PDGF Loop III dimer HSA (CVRKIEIVRKK)2(Peg3)2EYEK(Palm)EYE-C′ [JC5] | 68.28 | 51.71 | 47.96 | 23.01 | 32.23 | 18.26 | 591.3 | 283.7 | 286.3
PDGF−AB: recombinant human PDGF−AB, AB heterodimer of recombinant PDGF, positive control |  |  |  | 22.46 | 32.79 | 18.82 | 560.7 | 253 | 255.7
